According to ChEMBL document CHEMBL1128407 (J Med Chem, 1995):

Assays:
[1] = molecular target: Tubulin alpha chain (Sus scrofa) (UniProt P02550); assay: Compound is evaluated for tubulin polymerization (ratio of compound relative to paclitaxel (EC0.01).
HCT-116 = assay: Compound is evaluated for an in vitro cytotoxicity assay against HCT116 tumor cell lines; format: functional, cell-based; settings: Homo sapiens

Chain of Tubulin alpha chain (Sus scrofa) (P02550 whole entry, looked up): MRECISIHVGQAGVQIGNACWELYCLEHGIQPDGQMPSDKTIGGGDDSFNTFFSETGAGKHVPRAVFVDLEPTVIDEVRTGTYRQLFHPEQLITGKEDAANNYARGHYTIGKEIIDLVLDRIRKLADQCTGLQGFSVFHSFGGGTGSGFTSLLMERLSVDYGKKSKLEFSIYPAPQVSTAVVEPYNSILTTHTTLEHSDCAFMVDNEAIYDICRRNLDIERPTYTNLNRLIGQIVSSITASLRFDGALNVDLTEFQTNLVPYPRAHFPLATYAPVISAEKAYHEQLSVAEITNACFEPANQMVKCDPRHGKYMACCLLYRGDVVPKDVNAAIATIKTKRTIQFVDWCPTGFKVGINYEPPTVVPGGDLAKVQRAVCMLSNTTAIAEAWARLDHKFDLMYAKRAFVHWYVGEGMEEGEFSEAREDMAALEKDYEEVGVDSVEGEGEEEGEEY

| Compound | Ratio [1] | IC50 (HCT-116) [nM] |
| --- | --- | --- |
| CC(=O)O[C@H]1C(=O)[C@]2(C)[C@@H](O)CC3OC[C@@]3(OC(C)=O)[C@H]2[C@H](OC(=O)c2ccccc2)[C@]2(O)C[C@H](OC(=O)[C@H](O)[C@@H](NC(=O)OC(C)(C)C)c3ccccc3)C(C)=C1C2(C)C (stereo not given in full) | 0.55 | 0.55 |
| CC(=O)O[C@H]1C(=O)[C@]2(C)[C@@H](O)CC3OC[C@@]3(OC(=O)C3CC3)[C@H]2[C@H](OC(=O)c2ccccc2)[C@]2(O)C[C@H](OC(=O)[C@H](O)[C@@H](NC(=O)c3ccccc3)c3ccccc3)C(C)=C1C2(C)C (stereo not given in full) | – | 1 |
| CC(=O)O[C@H]1C(=O)[C@@]2(C)[C@H]([C@H](OC(=O)c3ccccc3)[C@]3(O)C[C@H](OC(=O)[C@H](O)[C@@H](NC(=O)c4ccccc4)c4ccccc4)C(C)=C1C3(C)C)[C@]1(OC(=O)N3CC3)CO[C@@H]1C[C@@H]2O | – | 15.6 |
| CC(=O)O[C@H]1C(=O)[C@]2(C)[C@@H](O)CC3OC[C@@]3(OC(C)=O)[C@H]2[C@H](OC(=O)c2ccccc2)[C@]2(O)C[C@H](OC(=O)[C@H](O)[C@@H](NC(=O)c3ccccc3)c3ccoc3)C(C)=C1C2(C)C (stereo not given in full) | 0.85 | 0.74 |

Second part, led by results:

| Ratio [1] | Compound | IC50 (HCT-116) [nM] |
| --- | --- | --- |
| 0.7 | CC(=O)O[C@H]1C(=O)[C@]2(C)[C@@H](O)CC3OC[C@@]3(OC(=O)N3CC3)[C@H]2[C@H](OC(=O)c2ccccc2)[C@]2(O)C[C@H](OC(=O)[C@H](O)[C@@H](NC(=O)c3ccccc3)c3ccco3)C(C)=C1C2(C)C (stereo not given in full) | 6.9 |
| 0.8 | CC(=O)O[C@H]1C(=O)[C@]2(C)[C@@H](O)CC3OC[C@@]3(OC(=O)N3CC3)[C@H]2[C@H](OC(=O)c2ccccc2)[C@]2(O)C[C@H](OC(=O)[C@H](O)[C@@H](NC(=O)OC(C)(C)C)c3ccco3)C(C)=C1C2(C)C (stereo not given in full) | 2 |
